Test results taken from patent US11390604B2 (Hoffmann-La Roche Inc., priority 2019, dated 2022).
Where a name gives a salt, the structure may show the parent alone.

System: Acinetobacter baumannii ATCC 17961
Assay: Antimicrobial susceptibility testing: 90% growth inhibitory concentration (IC90) determination
Type: cell-based
Details: ATCC17961, Acinetobacter baumannii ATCC 17961, Iso-Sensitest broth, read-out: ATCC 17961 IC90
Outline: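 Growth was followed kinetically by OD600 at 20-min intervals for 16 h at 35±2 °C, with ~5×10^5 CFU/ml in Iso-Sensitest broth. Compounds were tested as twofold dilutions (e.g. 50–0.097 μM final). The concentration giving 90% inhibition of log-phase growth was reported.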

Row | SMILES | IC90 [µM]
1 | Cn1c(-c2cn(C3CC3)nc2C(F)(F)F)cnc1C(=O)Nc1ccc(C(=O)N2CCN(C(=O)C3CNC3)CC2)c(Cl)c1 [Example 224, N-(4-(4-(azetidine-3-carbonyl)piperazine-1-carbonyl)-3-chlorophenyl)-5-(1-cyclopropyl-3-(trifluoromethyl)-1H-pyrazol-4-yl)-1-methyl-1H-imidazole-2-carboxamide hydrochloride] | 0.256
2 | Cn1c(-c2cn(C3CC3)nc2C(F)(F)F)cnc1C(=O)Nc1ccc(C(=O)N2CCN(C(=O)N[C@H]3C[C@H](N)C3)CC2)c(Cl)c1 [Example 225, N-(3-aminocyclobutyl)-4-[2-chloro-4-[[5-[1-cyclopropyl-3-(trifluoromethyl)pyrazol-4-yl]-1-methylimidazole-2-carbonyl]amino]benzoyl]pipera-zine-1-carboxamide;formic acid] | 0.256
3 | Cn1c(-c2cn(CC3CC3)nc2C(F)(F)F)cnc1C(=O)Nc1ccc(C(=O)NC2C3CN(C(=O)C4CCNCC4)CC32)c(Cl)c1 (stereo not drawn) [Example 227, N-(3-chloro-4-((3-(piperidine-4-carbonyl)-3-azabicyclo[3.1.0]hexan-6-yl)carbamoyl)phenyl)-5-(1-(cyclopropylmethyl)-3-(trifluoromethyl)-1H-pyrazol-4-yl)-1-methyl-1H-imidazole-2-carboxamide formate] | 0.262
4 | Cn1c(-c2cn(C3CC3)nc2C(F)(F)F)cnc1C(=O)Nc1ccc(C(=O)N2CCN(CCN)CC2)c(Cl)c1 [Example 228, N-(4-(4-(2-aminoethyl)piperazine-1-carbonyl)-3-chlorophenyl)-5-(1-cyclopropyl-3-(trifluoromethyl)-1H-pyrazol-4-yl)-1-methyl-1H-imidazole-2-carboxamide formate] | 0.263

More lines, now with the values ahead:

Row | IC90 [µM] | SMILES
5 | 0.263 | Cn1c(-c2cn(C3CC3)nc2C(F)(F)F)cnc1C(=O)Nc1ccc(C(=O)N2CCN(C(=O)[C@@H]3CCNC3)CC2)c(Cl)c1 [Example 229, (R)-N-(3-chloro-4-(4-(pyrrolidine-3-carbonyl)piperazine-1-carbonyl)phenyl)-5-(1-cyclopropyl-3-(trifluoromethyl)-1H-pyrazol-4-yl)-1-methyl-1H-imidazole-2-carboxamide hydrochloride]
6 | 0.266 | Cn1c(-c2cn(C3CC3)nc2C(F)(F)F)cnc1C(=O)Nc1ccc(C(=O)N2CCN(C(=O)[C@@H]3CC[C@@H](N)C3)CC2)c(Cl)c1 [Example 230, N-(4-(4-((1R,3R)-3-aminocyclopentane-1-carbonyl)piperazine-1-carbonyl)-3-chlorophenyl)-5-(1-cyclopropyl-3-(trifluoromethyl)-1H-pyrazol-4-yl)-1-methyl-1H-imidazole-2-carboxamide hydrochloride]
7 | 0.267 | Cn1c(-c2cn(C3CC3)nc2C(F)(F)F)cnc1C(=O)Nc1ccc(C(=O)N2CCN(C(=O)[C@H]3CC[C@H](N)CC3)CC2)c(Cl)c1 [Example 231, N-[4-[4-(4-aminocyclohexanecarbonyl)piper-azine-1-carbonyl]-3-chlorophenyl]-5-[1-cyclopropyl-3-(trifluoromethyl)pyrazol-4-yl]-1-methylimidazole-2-carboxamide;hydrochloride]
8 | 0.267 | Cn1c(-c2cn(C3CC3)nc2C(F)(F)F)cnc1C(=O)Nc1ccc(C(=O)N2CCN(C(=O)N[C@@H]3CC[C@@H](N)C3)CC2)c(Cl)c1 [Example 232, N-((1R,3R)-3-aminocyclopentyl)-4-(2-chloro-4-(5-(1-cyclopropyl-3-(trifluoromethyl)-1H-pyrazol-4-yl)-1-methyl-1H-imidazole-2-carboxamido)benzoyl)piperazine-1-carboxamide formate]
9 | 0.267 | Cn1c(-c2cn(C3CC3)nc2C(F)(F)F)cnc1C(=O)Nc1ccc(C(=O)N2CCN(C(=O)NC3CNC3)CC2)c(Cl)c1 [Example 233, N-(azetidin-3-yl)-4-[2-chloro-4-[[5-[1-cyclopropyl-3-(trifluoromethyl)pyrazol-4-yl]-1-methyl-imidazole-2-carbonyl]amino]benzoyl]pipera-zine-1-carboxamide; formic acid]
